In patent US20260356819A1, “OXOISOINDOLINYL-SUBSTITUTED […] DERIVATIVE AND USE THEREOF” (GLUETACS THERAPEUTICS (SHANGHAI) CO., LTD., priority 2023, published 2026):

Key:
Assay type in all cases: cell-based
Details in all cases: compounds at 50 nM and 500 nM
[1] = biological target: T1, WEE1 (Homo sapiens, UniProt P30291+Q96SW2); assay: Western blot degradation of WEE1 in hPBMCs (24 h)
T1 construct: The supernatant was aspirated as the extracted total cell protein; endogenous in cells; host or cells: human peripheral blood mononuclear cells (hPBMCs)
Outline: (§1)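 Thawed human PBMCs, 1×10^6 cells/mL; cpd 50 nM or 500 nM, 24 h; RIPA lysis, BCA, SDS-PAGE, NC transfer, immunoblot. Readout: grayscale/internal control → % remaining; degradation = 1 − remaining.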

[2] = biological target: T2, IKZF1 (Homo sapiens, UniProt Q13422+Q96SW2); assay: Western blot degradation of IKZF1 in hPBMCs (24 h)
T2 construct: The supernatant was aspirated as the extracted total cell protein; endogenous in cells; host or cells: human peripheral blood mononuclear cells (hPBMCs)
T2 sequence (Q13422 whole entry): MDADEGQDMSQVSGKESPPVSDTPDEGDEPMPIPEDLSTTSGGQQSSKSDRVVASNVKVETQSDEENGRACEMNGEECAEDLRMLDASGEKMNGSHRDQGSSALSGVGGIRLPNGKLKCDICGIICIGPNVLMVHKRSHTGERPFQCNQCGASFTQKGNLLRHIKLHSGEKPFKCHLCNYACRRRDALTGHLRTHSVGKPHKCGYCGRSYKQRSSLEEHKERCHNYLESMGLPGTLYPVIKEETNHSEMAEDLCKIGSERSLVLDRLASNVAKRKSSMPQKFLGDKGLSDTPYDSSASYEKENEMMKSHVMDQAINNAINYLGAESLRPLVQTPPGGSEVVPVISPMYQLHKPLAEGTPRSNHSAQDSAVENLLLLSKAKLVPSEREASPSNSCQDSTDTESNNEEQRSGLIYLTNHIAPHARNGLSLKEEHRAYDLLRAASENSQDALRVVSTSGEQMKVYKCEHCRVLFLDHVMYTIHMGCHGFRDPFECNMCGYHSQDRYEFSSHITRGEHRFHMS
T2 sequence (Q96SW2 whole entry): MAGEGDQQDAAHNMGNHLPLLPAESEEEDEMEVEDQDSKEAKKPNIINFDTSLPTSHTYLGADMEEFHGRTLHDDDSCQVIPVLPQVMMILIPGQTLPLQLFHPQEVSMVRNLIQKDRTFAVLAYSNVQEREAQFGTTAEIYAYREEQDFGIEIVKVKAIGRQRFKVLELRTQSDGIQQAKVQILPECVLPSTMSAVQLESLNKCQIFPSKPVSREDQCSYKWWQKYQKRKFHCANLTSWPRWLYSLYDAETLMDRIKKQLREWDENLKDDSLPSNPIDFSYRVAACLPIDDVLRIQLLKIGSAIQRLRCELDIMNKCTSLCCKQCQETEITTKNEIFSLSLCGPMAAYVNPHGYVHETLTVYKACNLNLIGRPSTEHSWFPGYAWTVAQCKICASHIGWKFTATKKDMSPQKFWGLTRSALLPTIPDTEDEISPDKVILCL
T2 sequence (Q16531 whole entry partner): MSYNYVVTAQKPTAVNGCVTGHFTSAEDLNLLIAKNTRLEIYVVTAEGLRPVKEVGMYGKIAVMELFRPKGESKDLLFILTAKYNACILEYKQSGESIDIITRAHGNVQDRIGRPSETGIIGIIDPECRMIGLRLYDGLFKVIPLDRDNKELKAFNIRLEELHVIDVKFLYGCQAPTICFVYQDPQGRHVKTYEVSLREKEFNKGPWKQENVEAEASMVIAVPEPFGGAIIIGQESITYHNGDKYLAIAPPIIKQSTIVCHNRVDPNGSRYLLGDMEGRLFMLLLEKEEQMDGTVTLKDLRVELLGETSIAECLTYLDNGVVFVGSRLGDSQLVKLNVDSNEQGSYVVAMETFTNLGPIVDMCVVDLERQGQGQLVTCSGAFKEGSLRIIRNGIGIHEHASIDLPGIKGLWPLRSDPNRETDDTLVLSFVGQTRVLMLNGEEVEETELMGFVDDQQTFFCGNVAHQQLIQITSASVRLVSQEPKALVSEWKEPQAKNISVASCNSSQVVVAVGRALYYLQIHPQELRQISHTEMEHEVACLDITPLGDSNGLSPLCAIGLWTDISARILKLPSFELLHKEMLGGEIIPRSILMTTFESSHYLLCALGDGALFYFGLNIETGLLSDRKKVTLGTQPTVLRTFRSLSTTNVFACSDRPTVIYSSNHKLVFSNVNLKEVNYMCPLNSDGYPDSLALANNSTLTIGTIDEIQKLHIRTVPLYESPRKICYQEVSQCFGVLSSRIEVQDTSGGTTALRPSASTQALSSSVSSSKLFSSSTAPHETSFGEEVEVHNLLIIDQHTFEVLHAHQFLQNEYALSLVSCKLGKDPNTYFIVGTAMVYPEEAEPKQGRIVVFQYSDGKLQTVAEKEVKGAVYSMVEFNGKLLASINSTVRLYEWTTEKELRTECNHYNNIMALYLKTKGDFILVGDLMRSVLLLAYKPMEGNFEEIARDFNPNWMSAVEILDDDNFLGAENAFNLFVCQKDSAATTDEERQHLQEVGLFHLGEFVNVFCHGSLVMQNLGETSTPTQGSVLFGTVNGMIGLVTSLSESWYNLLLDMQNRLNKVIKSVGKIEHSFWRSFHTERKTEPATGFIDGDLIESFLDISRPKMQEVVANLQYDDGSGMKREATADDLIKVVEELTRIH
Outline: as §1

[3] = biological target: T3, IKZF2 (Homo sapiens, UniProt Q96SW2+Q9UKS7); assay: Western blot degradation of IKZF2 in hPBMCs (24 h)
T3 construct: The supernatant was aspirated as the extracted total cell protein; endogenous in cells; host or cells: human peripheral blood mononuclear cells (hPBMCs)
T3 sequence (Q9UKS7 whole entry): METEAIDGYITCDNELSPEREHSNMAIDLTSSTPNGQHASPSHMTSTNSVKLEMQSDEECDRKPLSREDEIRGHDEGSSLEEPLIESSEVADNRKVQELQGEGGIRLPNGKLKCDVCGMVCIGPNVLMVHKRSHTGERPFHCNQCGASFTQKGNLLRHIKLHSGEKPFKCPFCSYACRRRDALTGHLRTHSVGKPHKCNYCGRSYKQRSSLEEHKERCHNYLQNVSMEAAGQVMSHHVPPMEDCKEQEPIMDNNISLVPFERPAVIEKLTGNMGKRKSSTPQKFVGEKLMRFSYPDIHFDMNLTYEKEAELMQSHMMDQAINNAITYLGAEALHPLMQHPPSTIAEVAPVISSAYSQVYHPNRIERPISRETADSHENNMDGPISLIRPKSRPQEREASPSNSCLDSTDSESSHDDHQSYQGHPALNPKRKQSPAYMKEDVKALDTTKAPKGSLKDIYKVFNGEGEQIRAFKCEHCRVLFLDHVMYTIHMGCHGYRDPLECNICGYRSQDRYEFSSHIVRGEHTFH
T3 sequence (Q96SW2 whole entry): as the sequence (Q96SW2 whole entry) above
T3 sequence (Q16531 whole entry partner): as the sequence (Q16531 whole entry partner) above
Outline: as §1

[4] = biological target: T4, IKZF3 (Homo sapiens, UniProt Q96SW2+Q9UKT9); assay: Western blot degradation of IKZF3 in hPBMCs (24 h)
T4 construct: The supernatant was aspirated as the extracted total cell protein; endogenous in cells; host or cells: human peripheral blood mononuclear cells (hPBMCs)
T4 sequence (Q9UKT9 whole entry): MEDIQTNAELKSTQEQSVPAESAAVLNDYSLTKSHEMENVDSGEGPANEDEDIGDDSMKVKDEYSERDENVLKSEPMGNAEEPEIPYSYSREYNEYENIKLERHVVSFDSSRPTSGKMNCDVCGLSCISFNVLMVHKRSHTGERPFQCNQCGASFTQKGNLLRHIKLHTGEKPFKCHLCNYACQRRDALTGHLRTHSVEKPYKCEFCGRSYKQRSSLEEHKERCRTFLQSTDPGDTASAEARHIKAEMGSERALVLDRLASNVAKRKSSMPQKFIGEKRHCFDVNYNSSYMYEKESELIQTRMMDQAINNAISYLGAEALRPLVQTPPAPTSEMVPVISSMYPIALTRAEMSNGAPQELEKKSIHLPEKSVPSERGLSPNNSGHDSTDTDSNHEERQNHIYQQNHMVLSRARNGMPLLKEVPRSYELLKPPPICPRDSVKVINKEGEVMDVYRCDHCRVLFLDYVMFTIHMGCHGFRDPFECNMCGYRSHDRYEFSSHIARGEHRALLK
T4 sequence (Q96SW2 whole entry): as the sequence (Q96SW2 whole entry) above
T4 sequence (Q16531 whole entry partner): as the sequence (Q16531 whole entry partner) above
Outline: as §1

[5] = biological target: T5, CK1α (Homo sapiens, UniProt P48729+Q96SW2); assay: Western blot degradation of CK1α in hPBMCs (24 h)
T5 construct: The supernatant was aspirated as the extracted total cell protein; endogenous in cells; host or cells: human peripheral blood mononuclear cells (hPBMCs)
T5 sequence (P48729 whole entry): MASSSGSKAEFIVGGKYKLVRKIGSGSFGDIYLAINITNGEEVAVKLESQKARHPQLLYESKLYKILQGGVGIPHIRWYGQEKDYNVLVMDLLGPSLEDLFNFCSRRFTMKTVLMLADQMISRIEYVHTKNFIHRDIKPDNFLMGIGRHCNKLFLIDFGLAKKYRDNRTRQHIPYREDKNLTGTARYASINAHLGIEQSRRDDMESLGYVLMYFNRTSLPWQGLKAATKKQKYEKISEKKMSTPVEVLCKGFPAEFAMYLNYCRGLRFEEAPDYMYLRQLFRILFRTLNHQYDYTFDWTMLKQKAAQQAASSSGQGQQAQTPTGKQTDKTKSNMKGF
T5 sequence (Q96SW2 whole entry): as the sequence (Q96SW2 whole entry) above
T5 sequence (Q16531 whole entry partner): as the sequence (Q16531 whole entry partner) above
Outline: as §1

[6] = biological target: T6, GSPT1 (Homo sapiens, UniProt P15170+Q96SW2); assay: Western blot degradation of GSPT1 in hPBMCs (24 h)
T6 construct: The supernatant was aspirated as the extracted total cell protein; endogenous in cells; host or cells: human peripheral blood mononuclear cells (hPBMCs)
T6 sequence (P15170 whole entry): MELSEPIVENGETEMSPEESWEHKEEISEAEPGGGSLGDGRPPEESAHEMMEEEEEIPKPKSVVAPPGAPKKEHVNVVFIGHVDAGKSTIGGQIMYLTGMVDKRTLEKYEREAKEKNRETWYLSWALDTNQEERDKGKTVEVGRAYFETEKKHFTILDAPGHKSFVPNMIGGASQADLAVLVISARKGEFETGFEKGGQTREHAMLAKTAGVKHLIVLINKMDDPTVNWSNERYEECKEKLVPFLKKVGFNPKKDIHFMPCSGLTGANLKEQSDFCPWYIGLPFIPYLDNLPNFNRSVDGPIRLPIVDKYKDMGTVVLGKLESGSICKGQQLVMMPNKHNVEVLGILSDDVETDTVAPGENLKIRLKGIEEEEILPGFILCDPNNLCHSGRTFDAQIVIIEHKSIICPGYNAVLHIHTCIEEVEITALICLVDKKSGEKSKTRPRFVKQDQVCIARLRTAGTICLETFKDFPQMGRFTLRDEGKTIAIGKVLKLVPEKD
T6 sequence (Q96SW2 whole entry): as the sequence (Q96SW2 whole entry) above
T6 sequence (Q16531 whole entry partner): as the sequence (Q16531 whole entry partner) above
Outline: as §1

Compound | WEE1 substrate protein remaining % [1] | IKZF1 substrate protein remaining % [2] | IKZF2 substrate protein remaining % [3] | IKZF3 substrate protein remaining % [4] | CK1α substrate protein remaining % [5] | GSPT1 substrate protein remaining % [6]
O=C1CCN(N2Cc3cc(CN4CCC(c5ccc(Cl)cc5)CC4)ccc3C2=O)C(=O)N1 [GT-06888, 1-(5-((4-(4-chlorophenyl)piperidin-1-yl)methyl)-1-oxoisoindolin-2-yl)dihydropyrimidine-2,4(1H,3H)-dione] | A (0% ≤ substrate protein remaining % ≤80%) | B (80%< substrate protein remaining % ≤100%) | A (0% ≤ substrate protein remaining % ≤80%) | B (80%< substrate protein remaining % ≤100%) | B (80%< substrate protein remaining % ≤100%) | A (0% ≤ substrate protein remaining % ≤80%)
O=C1CCN(N2Cc3cc(CN4CCC(c5ccccc5F)CC4)ccc3C2=O)C(=O)N1 [GT-06889, 1-(5-((4-(2-fluorophenyl)piperidin-1-yl)methyl)-1-oxoisoindolin-2-yl)dihydropyrimidine-2,4(1H,3H)-dione] | A (0% ≤ substrate protein remaining % ≤80%) | B (80%< substrate protein remaining % ≤100%) | A (0% ≤ substrate protein remaining % ≤80%) | B (80%< substrate protein remaining % ≤100%) | B (80%< substrate protein remaining % ≤100%) | A (0% ≤ substrate protein remaining % ≤80%)
O=C1CCN(N2Cc3cc(CN4CCC(c5ccc(F)cc5)CC4)ccc3C2=O)C(=O)N1 [GT-06890, 1-(5-((4-(4-fluorophenyl)piperidin-1-yl)methyl)-1-oxoisoindolin-2-yl)dihydropyrimidine-2,4(1H,3H)-dione] | A (0% ≤ substrate protein remaining % ≤80%) | B (80%< substrate protein remaining % ≤100%) | B (80%< substrate protein remaining % ≤100%) | B (80%< substrate protein remaining % ≤100%) | B (80%< substrate protein remaining % ≤100%) | A (0% ≤ substrate protein remaining % ≤80%)
O=C1CCN(N2Cc3cc(CN4CCC(c5ccccc5C(F)(F)F)CC4)ccc3C2=O)C(=O)N1 [GT-06891, 1-(1-oxo-5-((4-(2-(trifluoromethyl)phenyl)piperidin-1-yl)methyl)isoindolin-2-yl)dihydropyrimidine-2,4(1H,3H)-dione] | A (0% ≤ substrate protein remaining % ≤80%) | B (80%< substrate protein remaining % ≤100%) | A (0% ≤ substrate protein remaining % ≤80%) | B (80%< substrate protein remaining % ≤100%) | B (80%< substrate protein remaining % ≤100%) | A (0% ≤ substrate protein remaining % ≤80%)
O=C1CCN(N2C(=O)c3ccc(CN4CCC(c5cccc(F)c5Cl)CC4)cc3C2=O)C(=O)N1 [GT-06895, 5-((4-(2-chloro-3-fluorophenyl)piperidin-1-yl)methyl)-2-(2,4-dioxotetrahydropyrimidin-1(2H)-yl)isoindoline-1,3-dione] | B (80%< substrate protein remaining % ≤100%) | A (0% ≤ substrate protein remaining % ≤80%) | B (80%< substrate protein remaining % ≤100%) | B (80%< substrate protein remaining % ≤100%) | B (80%< substrate protein remaining % ≤100%) | B (80%< substrate protein remaining % ≤100%)
O=C1CCN(N2C(=O)c3ccc(CN4CC=C(c5cccc(F)c5Cl)CC4)cc3C2=O)C(=O)N1 [GT-06896, 5-((4-(2-chloro-3-fluorophenyl)-3,6-dihydropyridin-1(2H)-yl)methyl)-2-(2,4-dioxotetrahydropyrimidin-1(2H)-yl)isoindoline-1,3-dione] | B (80%< substrate protein remaining % ≤100%) | A (0% ≤ substrate protein remaining % ≤80%) | B (80%< substrate protein remaining % ≤100%) | B (80%< substrate protein remaining % ≤100%) | B (80%< substrate protein remaining % ≤100%) | B (80%< substrate protein remaining % ≤100%)
O=C1CCN(N2C(=O)c3ccc(CN4CCN(c5ccc(F)cn5)CC4)cc3C2=O)C(=O)N1 [GT-06965, 2-(2,4-dioxotetrahydropyrimidin-1(2H)-yl)-5-((4-(5-fluoropyridin-2-yl)piperazin-1-yl)methyl)isoindoline-1,3-dione] | B (80%< substrate protein remaining % ≤100%) | B (80%< substrate protein remaining % ≤100%) | A (0% ≤ substrate protein remaining % ≤80%) | B (80%< substrate protein remaining % ≤100%) | B (80%< substrate protein remaining % ≤100%) | B (80%< substrate protein remaining % ≤100%)
O=C1CCN(N2C(=O)c3ccc(CN4CCN(c5ccc(C(F)(F)F)cn5)CC4)cc3C2=O)C(=O)N1 [GT-06968, 2-(2,4-dioxotetrahydropyrimidin-1(2H)-yl)-5-((4-(5-(trifluoromethyl)pyridin-2-yl)piperazin-1-yl)methyl)isoindoline-1,3-dione] | A (0% ≤ substrate protein remaining % ≤80%) | B (80%< substrate protein remaining % ≤100%) | A (0% ≤ substrate protein remaining % ≤80%) | B (80%< substrate protein remaining % ≤100%) | B (80%< substrate protein remaining % ≤100%) | B (80%< substrate protein remaining % ≤100%)
O=C1CCN(N2C(=O)c3ccc(CN4CCN(c5ncc(Cl)cc5Cl)CC4)cc3C2=O)C(=O)N1 [GT-06969, 5-((4-(3,5-dichloropyridin-2-yl)piperazin-1-yl)methyl)-2-(2,4-dioxotetrahydropyrimidin-1(2H)-yl)isoindoline-1,3-dione] | A (0% ≤ substrate protein remaining % ≤80%) | B (80%< substrate protein remaining % ≤100%) | A (0% ≤ substrate protein remaining % ≤80%) | B (80%< substrate protein remaining % ≤100%) | B (80%< substrate protein remaining % ≤100%) | B (80%< substrate protein remaining % ≤100%)
O=C1CCN(N2C(=O)c3ccc(CN4CCN(c5nccc(I)c5F)CC4)cc3C2=O)C(=O)N1 [GT-06970, 2-(2,4-dioxotetrahydropyrimidin-1(2H)-yl)-5-((4-(3-fluoro-4-iodopyridin-2-yl)piperazin-1-yl)methyl)isoindoline-1,3-dione] | A (0% ≤ substrate protein remaining % ≤80%) | B (80%< substrate protein remaining % ≤100%) | A (0% ≤ substrate protein remaining % ≤80%) | B (80%< substrate protein remaining % ≤100%) | B (80%< substrate protein remaining % ≤100%) | B (80%< substrate protein remaining % ≤100%)
O=C1CCN(N2C(=O)c3ccc(CN4CCN(c5cccnc5)CC4)cc3C2=O)C(=O)N1 [GT-06971, 2-(2,4-dioxotetrahydropyrimidin-1(2H)-yl)-5-((4-(pyridin-3-yl)piperazin-1-yl)methyl)isoindoline-1,3-dione] | A (0% ≤ substrate protein remaining % ≤80%) | B (80%< substrate protein remaining % ≤100%) | A (0% ≤ substrate protein remaining % ≤80%) | B (80%< substrate protein remaining % ≤100%) | B (80%< substrate protein remaining % ≤100%) | B (80%< substrate protein remaining % ≤100%)
O=C1CCN(N2C(=O)c3ccc(CN4CCN(c5cncc(Cl)c5Cl)CC4)cc3C2=O)C(=O)N1 [GT-06972, 5-((4-(4,5-dichloropyridin-3-yl)piperazin-1-yl)methyl)-2-(2,4-dioxotetrahydropyrimidin-1(2H)-yl)isoindoline-1,3-dione] | A (0% ≤ substrate protein remaining % ≤80%) | B (80%< substrate protein remaining % ≤100%) | A (0% ≤ substrate protein remaining % ≤80%) | B (80%< substrate protein remaining % ≤100%) | B (80%< substrate protein remaining % ≤100%) | B (80%< substrate protein remaining % ≤100%)
O=C1CCN(N2C(=O)c3ccc(CN4CCN(c5c(Cl)ccnc5Cl)CC4)cc3C2=O)C(=O)N1 [GT-06973, 5-((4-(2,4-dichloropyridin-3-yl)piperazin-1-yl)methyl)-2-(2,4-dioxotetrahydropyrimidin-1(2H)-yl)isoindoline-1,3-dione] | A (0% ≤ substrate protein remaining % ≤80%) | A (0% ≤ substrate protein remaining % ≤80%) | B (80%< substrate protein remaining % ≤100%) | A (0% ≤ substrate protein remaining % ≤80%) | B (80%< substrate protein remaining % ≤100%) | B (80%< substrate protein remaining % ≤100%)
